Measurements as given in patent US12649734B2, “Bioavailable protein disulfide isomerase inhibitors” (THE CLEVELAND CLINIC FOUNDATION, priority 2020, dated 2026).

Test system: BTZ-resistant MM1.S cells
Experiment: Cell viability assay, BTZ-resistant MM1.S
Type: cell-based, human
Description: Cells and reagents: MM1.S-luc-BTZ (BTZ®)-resistant cell line was made in our laboratory. Starting with 1 nM concentration, MM1.S-luc cells were treated with BTZ and exposed continuously for 5 days and removed for 2 days before re-exposure to the drug until the growth of the cells mimicked the parental cell line. Incremental increase of the drug was applied until the concentration of 8 nM was reached. […] BTZ was procured from Millennium Pharmaceuticals Inc. All cell lines that are used in this study and their detailed information are shown in table 1 below.
Cell viability assay: Cell viability was measured in 96 well culture plates (2×10^4 cells/well) using CellTiter-Glo® Luminescent Cell Viability Assay (Promega, Madison, WI, USA) according to the manufacturer's protocol.

NC(CC1CNc2ccccc21)C(=O)NCCCOc1ccc(N2C(=O)/C(=C/c3ccc([N+](=O)[O-])s3)SC2=S)cc1 (stereo not shown) [CCF642-34]
sensitivity of BTZ-resistant MM1.S compared to parental BTZ-naive MM1.S: ~2 fold
